# Source: patent US6486199B1, “Spiro and dispiro 1,2,4-trioxolane antimalarials” (Medicines for Malaria Venture MMV International Centre …, priority 2001, dated 2002)
# Test: differential scanning calorimetry (DSC), thermal stability
# Assay type: physicochemical
# Settings: thermal decomposition
row,Structure (SMILES),Tm dec. (° C.) [°C]
1,"O=C1CC2CC(C1)CC1(C2)OOC2(O1)C1CC3CC(C1)CC2C3 (stereo not shown) [OZ13, Adamantane-2-spiro-3′-1′,2′,4′-trioxolane-5′-spiro-3″-7″-oxobicyclo[3.3.1]nonane]",170.1
2,"CC(C)(C)OC(=O)N1CCC2(CC1)OOC1(O2)C2CC3CC(C2)CC1C3 (stereo not shown) [OZ35, Adamantane-2-spiro-3′-8′-t-butoxycarbonyl-1′,2′,4′-trioxa-8′-azaspiro[4.5]decane]",159.4
3,"c1ccc(C2(c3ccccc3)OOC3(O2)C2CC4CC(C2)CC3C4)cc1 (stereo not shown) [OZ42, Adamantane-2-spiro-3′-5′,5′-diphenyl-1′,2′,4′-trioxolane]",159.1
4,"O=S(=O)(c1ccccc1)N1CCC2(CC1)OOC1(O2)C2CC3CC(C2)CC1C3 (stereo not shown) [OZ60, Adamantane-2-spiro-3′-8′-benzenesulfonyl-1′, 2′,4′-trioxa-8′-azaspiro[4.5]decane]",152.6
5,"Clc1ccc(C2CCC3(CC2)OOC2(O3)C3CC4CC(C3)CC2C4)cc1 (stereo not shown) [OZ47, Adamantane-2-spiro-3′-8′-(4′-chlorophenyl)-1′,2′,4′-trioxaspiro[4.5]decane]",159.3
6,"Fc1c(F)c(F)c(C2(c3c(F)c(F)c(F)c(F)c3F)OOC3(O2)C2CC4CC(C2)CC3C4)c(F)c1F (stereo not shown) [OZ45, Adamantane-2-spiro-3′-5′,5′-bis(2′,3′,4′,5′,6′-pentafluorophenyl)-5′,2′,4′-trioxolane]",133.7
7,"CC(C)C1CCC2(CC1)OOC1(O2)C2CC3CC(C2)CC1C3 (stereo not shown) [OZ40, Adamantane-2-spiro-3′-8′-isopropyl-1′,2′,4′-trioxaspiro[4.5]decane]",164.2
8,"N#CC1(c2ccccc2)CCC2(CC1)OOC1(O2)C2CC3CC(C2)CC1C3 (stereo not shown) [OZ63, Adamantane-2-spiro-3′-8′-cyano-8′-phenyl-1′,2′,4′-trioxaspiro[4.5]decane]",158.3
9,"O=S(=O)(c1ccc(Cl)cc1)N1CCC2(CC1)OOC1(O2)C2CC3CC(C2)CC1C3 (stereo not shown) [OZ57, Adamantane-2-spiro-3′-8′-(4′-chlorobenzenesulfonyl)-1′,2′,4′-trioxa-8′-azaspiro[4.5]decane]",158.0
10,"Fc1ccc(C2(c3ccc(F)cc3)OOC3(O2)C2CC4CC(C2)CC3C4)cc1 (stereo not shown) [OZ44, Adamantane-2-spiro-3′-5′, 5′-bis(4′-fluorophenyl)-1′,2′,4′-trioxolane]",157.5
11,"Cc1ccc(S(=O)(=O)N2CCC3(CC2)OOC2(O3)C3CC4CC(C3)CC2C4)cc1 (stereo not shown) [OZ51, Adamantane-2-spiro-3′-8′-(p-toluenesulfonyl)-1′,2′,4′-trioxa-8′-azaspiro[4.5]decane]",152.3
12,"N#CC1(c2ccc(Cl)c(Cl)c2)CCC2(CC1)OOC1(O2)C2CC3CC(C2)CC1C3 (stereo not shown) [OZ75, Adamantane-2-spiro-3′-8′-cyano-8′-(3′,4′-dichlorophenyl)-1′,2′,4′-trioxaspiro[4.5]decane]",159.1
13,"OC1(c2ccc(F)cc2)CCC2(CC1)OOC1(O2)C2CC3CC(C2)CC1C3 (stereo not shown) [OZ76, Adamantane-2-spiro-3′-8′-(4′-fluorophenyl)-8′-hydroxy-1′,2′,4′-trioxaspiro[4.5]decane]",149.6
14,"CC(C)(C)COC(=O)C1CCC2(CC1)OOC1(O2)C2CC3CC(C2)CC1C3 (stereo not shown) [OZ64, Adamantane-2-spiro-3′-8′-neopentyloxycarbonyl-1′,2′,4′-trioxaspiro[4.5]decane]",163.8
15,"CS(=O)(=O)N1CCC2(CC1)OOC1(O2)C2CC3CC(C2)CC1C3 (stereo not shown) [OZ56, Adamantane-2-spiro-3′-8′-methanesulfonyl-1′,2′,4′-trioxa-8′-azaspiro[4.5]decane]",158.0
16,"O=C(O)CCC(=O)N1CCC2(CC1)OOC1(O2)C2CC3CC(C2)CC1C3 (stereo not shown) [OZ58, Adamantane-2-spiro-3′-8′-(3′-carboxypropionyl)-1′,2′,4′-trioxa-8′-azaspiro[4.5]decane]",147.0
17,"FC(F)(F)c1cccc(C2(c3cccc(C(F)(F)F)c3)OOC3(O2)C2CC4CC(C2)CC3C4)c1 (stereo not shown) [OZ46, Adamantane-2-spiro-3′-5′,5′-bis[3′-(trifluoromethyl)phenyl]-1′,2′,4′-trioxolane]",161.3
18,"O=C(OC1CCC2(CC1)OOC1(O2)C2CC3CC(C2)CC1C3)c1ccccc1 (stereo not shown) [OZ74, Adamantane-2-spiro-3′-8′-benzoyloxy-1′,2′,4′-trioxaspiro[4.5]decane]",161.2
19,"FC(F)(F)c1ccc(C2CCC3(CC2)OOC2(O3)C3CC4CC(C3)CC2C4)cc1 (stereo not shown) [OZ48, Adamantane-2-spiro-3′-8′-[4′-(trifluoromethyl)phenyl]-1′,2′,4′-trioxaspiro[4.5]decane]",156.1
20,"ON=C1CCC2(CC1)OOC1(O2)C2CC3CC(C2)CC1C3 (stereo not shown) [OZ16, Adamantane-2-spiro-3′-8′-hydroxyimino-1′,2′,4′-trioxaspiro[4.5]decane]",153.6
21,"CCOC(=O)CCC(=O)N1CCC2(CC1)OOC1(O2)C2CC3CC(C2)CC1C3 (stereo not shown) [OZ53, Adamantane-2-spiro-3′-8′-[3′-(ethoxycarbonyl)propionyl]-1′,2′,4′-trioxa-8′-azaspiro[4.5]decane]",152.7
22,"O=C1c2ccccc2C(=O)N1N=C1CCC2(CC1)OOC1(O2)C2CC3CC(C2)CC1C3 (stereo not shown) [OZ38, Adamantane-2-spiro-3′-8′-(N-phthalimido)imino-1′,2′,4′-trioxaspiro[4.5]decane]",165.1
23,"COc1ccc(S(=O)(=O)N2CCC3(CC2)OOC2(O3)C3CC4CC(C3)CC2C4)cc1 (stereo not shown) [OZ59, Adamantane-2-spiro-3′-8′-(4′-methoxybenzenesulfonyl)-1′,2′,4′-trioxa-8′-azaspiro[4.5]decane]",152.2
24,"CC(C)(C)ON=C1CCC2(CC1)OOC1(O2)C2CC3CC(C2)CC1C3 (stereo not shown) [OZ28, Adamantane-2-spiro-3′-8′-t-butyloxyimino-1′,2′,4′-trioxaspiro[4.5]decane]",162.4
25,"CC1(C)CC(C)(C)CC2(C1)OOC1(O2)C2CC3CC(C2)CC1C3 (stereo not shown) [OZ26, Adamantane-2-spiro-3′-7′,9′-tetramethyl-1′,2′,4′-trioxaspiro[4.5]decane]",173.4
26,"c1ccc(CC2(Cc3ccccc3)OOC3(O2)C2CC4CC(C2)CC3C4)cc1 (stereo not shown) [OZ52, Adamantane-2-spiro-3′-5′,5′-dibenzyl-1′,2′,4′-trioxolane]",154.9
27,"CON=C1CC2CC3(CC2C1)OOC1(O3)C2CC3CC(C2)CC1C3 (stereo not drawn) [OZ37, Adamantane-2-spiro-3′-1′,2′,4′-trioxolane-5′-spiro-3″-7″-methoxyimino-cis-bicyclo[3.3.0]octane]",151.2
28,"CC1(C)CCC2(CC1)OOC1(O2)C2CC3CC(C2)CC1C3 (stereo not shown) [OZ33, Adamantane-2-spiro-3′-8′,8′-dimethyl-1′,2′,4′-trioxaspiro[4.5]decane]",163.1
